In patent US10065990B2, “Cyclic peptide compound, and preparation method, pharmaceutical composition and use thereof” (HANGZHOU GUANYU BIO-MEDICAL CO., LTD, priority 2013, dated 2018):

How the values were obtained:
HDAC7 = biological target: T1, HDAC7 (Homo sapiens, UniProt Q8WUI4); assay: HDAC biochemical activity measurement (fluorescent substrate deacetylation);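 further: fluorogenic deacetylation assay using acetyl-lysine substrate at 20 µM, enzyme and compound incubated 30 min at 37 °C, then developer added, fluorescence read at 360/460 nm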; details: HDAC7; 37° C. 30 minutes
T1 sequence (Q8WUI4 1-952): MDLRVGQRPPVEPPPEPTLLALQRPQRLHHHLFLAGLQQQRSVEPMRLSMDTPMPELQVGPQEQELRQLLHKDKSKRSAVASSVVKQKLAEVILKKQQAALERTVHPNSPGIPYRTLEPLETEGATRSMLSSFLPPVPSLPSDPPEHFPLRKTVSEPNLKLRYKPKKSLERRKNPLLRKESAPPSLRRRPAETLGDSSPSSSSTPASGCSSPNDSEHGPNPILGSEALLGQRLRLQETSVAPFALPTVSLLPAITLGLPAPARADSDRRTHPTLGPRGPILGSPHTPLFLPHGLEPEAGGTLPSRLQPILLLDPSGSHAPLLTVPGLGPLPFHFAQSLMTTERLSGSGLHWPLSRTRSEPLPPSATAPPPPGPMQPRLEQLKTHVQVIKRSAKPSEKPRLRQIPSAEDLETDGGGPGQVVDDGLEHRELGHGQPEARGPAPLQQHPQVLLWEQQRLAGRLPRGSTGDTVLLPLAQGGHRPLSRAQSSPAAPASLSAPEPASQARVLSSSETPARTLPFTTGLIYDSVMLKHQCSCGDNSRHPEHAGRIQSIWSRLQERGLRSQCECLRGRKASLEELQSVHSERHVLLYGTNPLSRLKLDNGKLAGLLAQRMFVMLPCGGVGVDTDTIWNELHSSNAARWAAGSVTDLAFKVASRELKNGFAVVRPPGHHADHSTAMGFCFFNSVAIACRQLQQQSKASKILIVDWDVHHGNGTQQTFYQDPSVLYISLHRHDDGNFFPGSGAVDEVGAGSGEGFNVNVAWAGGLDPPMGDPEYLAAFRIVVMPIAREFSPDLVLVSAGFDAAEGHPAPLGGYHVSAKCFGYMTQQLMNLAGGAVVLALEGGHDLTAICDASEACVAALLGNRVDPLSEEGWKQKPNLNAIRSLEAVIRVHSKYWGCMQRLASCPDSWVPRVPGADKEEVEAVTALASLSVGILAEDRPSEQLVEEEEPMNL

[1] = test system: SGC-7901 (human gastric cancer cells); assay: MTT cancer cell growth inhibition; format: cell-based; details: Homo sapiens, SGC-7901, 72 h, MTT, 72 hours incubation, SGC-7901 cells; read-out: GI50 SGC-7901
Summary of the method: (§1)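 Absorbance at 570 nm of DMSO-dissolved formazan, formed during a 4 h MTT incubation, served as the viability measure. Cells had been exposed 72 h to drug at 10^−5–10^−10 M final; GI50 was calculated from these readings.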

[2] = test system: MDA-MB-231 (breast cancer cells); assay: MTT cancer cell growth inhibition; format: cell-based; details: Homo sapiens, MDA-MB-231, 72 h, read-out: GI50 MDA-MB-231, MTT, 72 hours incubation, MDA-MB-231 cells
Summary of the method: as §1

[3] = test system: MCF-7 (human breast cancer cells); assay: MTT cancer cell growth inhibition; format: cell-based; details: Homo sapiens, MCF7, 72 h, MCF-7 cells, 72 hours incubation, read-out: GI50 MCF
Summary of the method: as §1

[4] = test system: HCC827 (human non-small cell lung cancer cells); assay: MTT cancer cell growth inhibition; format: cell-based; details: Homo sapiens, HCC827, 72 h, MTT, 72 hours incubation, HCC827 cells; read-out: GI50 HCC827
Summary of the method: as §1

[5] = test system: KBM5-T315I (human chronic myelogenous leukemia); assay: MTT cancer cell growth inhibition; format: cell-based; details: Homo sapiens, 72 h, MTT, 72 hours incubation, KBM5-T315I cells; read-out: GI50 KBM5-T315I
Summary of the method: as §1

[6] = test system: Huh-7 (human hepatoma cells); assay: MTT cancer cell growth inhibition; format: cell-based; details: Homo sapiens, Huh-7, 72 h, MTT, 72 hours incubation, Huh-7 cells; read-out: GI50 Huh-7
Summary of the method: as §1

[7] = test system: Hela (human cervical cancer cells); assay: MTT cancer cell growth inhibition; format: cell-based; details: Homo sapiens, HeLa, 72 h, Hela cells, MTT, 72 hours incubation; read-out: GI50 Hela
Summary of the method: as §1

[8] = test system: HT1080 (human fibrosarcoma cells); assay: MTT cancer cell growth inhibition; format: cell-based; details: Homo sapiens, HT-1080, 72 h, HT1080 cells, MTT, 72 hours incubation; read-out: GI50 HT1
Summary of the method: as §1

[9] = test system: K562 (human leukemia cells); assay: MTT cancer cell growth inhibition; format: cell-based; details: Homo sapiens, K562, 72 h, MTT, 72 hours incubation, K562 cells; read-out: GI50 K562
Summary of the method: as §1

[10] = test system: H1975 (non-small cell lung adenocarcinoma); assay: MTT cancer cell growth inhibition; format: cell-based; details: Homo sapiens, NCI-H1975, 72 h, MTT, 72 hours incubation, H1975 cells; read-out: GI50 H1975
Summary of the method: as §1

[11] = test system: PANC-1 (Pac-1, human pancreatic cancer cells); assay: MTT cancer cell growth inhibition; format: cell-based; details: Homo sapiens, PANC-1, 72 h, PANC-1 cells, MTT, 72 hours incubation; read-out: GI50 PAN
Summary of the method: as §1

[12] = test system: lncap (prostate cancer cells); assay: MTT cancer cell growth inhibition; format: cell-based; details: Homo sapiens, LNCaP, 72 h, lncap cells, MTT, 72 hours incubation; read-out: GI50 lnca
Summary of the method: as §1

[13] = test system: BGC-823 (human gastric cancer cells); assay: MTT cancer cell growth inhibition; format: cell-based; details: Homo sapiens, BGC-823, 72 h, BGC-823 cells, MTT, 72 hours incubation; read-out: GI50 BG
Summary of the method: as §1

[14] = test system: N-87 (human gastric cancer cells); assay: MTT cancer cell growth inhibition; format: cell-based; details: Homo sapiens, 72 h, MTT, 72 hours incubation, N-87 cells; read-out: GI50 N-87
Summary of the method: as §1

[15] = test system: MOLT-4 (human acute lymphoblastic leukemia cells); assay: MTT cancer cell growth inhibition; format: cell-based; details: Homo sapiens, MOLT-4, 72 h, MOLT-4 cells, MTT, 72 hours incubation; read-out: GI50 Mol
Summary of the method: as §1

[16] = test system: Bel-7402 (human hepatoma cells); assay: MTT cancer cell growth inhibition; format: cell-based; details: Homo sapiens, Bel-7402, 72 h, MTT, 72 hours incubation, Bel-7402 cells; read-out: GI50 Bel-7402
Summary of the method: as §1

[17] = test system: A549 (human lung cancer cells); assay: MTT cancer cell growth inhibition; format: cell-based; details: Homo sapiens, A549, 72 h, A549 cells, MTT, 72 hours incubation; read-out: GI50 A54
Summary of the method: as §1

[18] = test system: DU145 (human prostate cancer cells); assay: MTT cancer cell growth inhibition; format: cell-based; details: Homo sapiens, DU-145, 72 h, DU145 cells, MTT, 72 hours incubation; read-out: GI50 Du1
Summary of the method: as §1

[19] = test system: U937 (human leukemia cells); assay: MTT cancer cell growth inhibition; format: cell-based; details: Homo sapiens, U-937, 72 h, U937 cells, MTT, 72 hours incubation; read-out: GI50 U93
Summary of the method: as §1

[20] = test system: KBM-5 (human chronic myelogenous leukemia); assay: MTT cancer cell growth inhibition; format: cell-based; details: Homo sapiens, KBM5, 72 h, MTT, 72 hours incubation, KBM-5 cells; read-out: GI50 KBM-5
Summary of the method: as §1

IC50 HDAC7 (HDAC7)	GI50 [1]	GI50 [2]	GI50 [3]	GI50 [4]	GI50 [5]	GI50 [6]	GI50 [7]	GI50 [8]	GI50 [9]	GI50 [10]	GI50 [11]	GI50 [12]	GI50 [13]	GI50 [14]	GI50 [15]	GI50 [16]	GI50 [17]	GI50 [18]	GI50 [19]	Compound	other results
no activity	23 nM	34 nM	20 nM	33 nM	65 nM	68 nM	90 nM	20 nM	61 nM	37 nM	20 nM	30 nM	50 nM	35 nM	30 nM	31 nM	60 nM	30 nM	40 nM	C/C=C1\NC(=O)c2nc(ccc2SC)CNC(=O)C[C@@H](/C=C/CCS)OC(=O)[C@H](C(C)C)NC1=O [Compound 226]	GI50 [20]: 75 nM
no activity	28 nM	96 nM	30 nM	28 nM	47 nM	95 nM	20 nM	20 nM	62 nM	81 nM	80 nM	30 nM	340 nM	41 nM	50 nM	38 nM	60 nM	50 nM	60 nM	C/C=C1\NC(=O)c2ccc(SC)c(n2)CNC(=O)C[C@@H](/C=C/CCSC(=O)CC)OC(=O)[C@H](C(C)C)NC1=O [Compound 164]	GI50 [20]: 73 nM
no activity	67 nM	51 nM	80 nM	47 nM	29 nM	35 nM	30 nM	40 nM	81 nM	78 nM	10 nM	40 nM	90 nM	27 nM	30 nM	42 nM	40 nM	50 nM	30 nM	C/C=C1\NC(=O)c2cc(SC)cc(n2)CNC(=O)C[C@@H](/C=C/CCSC(C)=O)OC(=O)[C@H](Cc2cccc3ccccc23)NC1=O [Compound 199]	GI50 [20]: 17 nM
no activity	73 nM	56 nM	30 nM	37 nM	19 nM	83 nM	60 nM	30 nM	28 nM	67 nM	20 nM	50 nM	20 nM	28 nM	40 nM	36 nM	30 nM	50 nM	20 nM	C=C1NC(=O)c2nc(ccc2SC)CNC(=O)C[C@@H](/C=C/CCSC(C)=O)OC(=O)[C@H](C(C)C)NC1=O [Compound 204]	GI50 [20]: 63 nM
no activity	41 nM	71 nM	30 nM	13 nM	38 nM	59 nM	70 nM	20 nM	81 nM	29 nM	30 nM	20 nM	40 nM	38 nM	60 nM	72 nM	40 nM	20 nM	30 nM	C/C=C1\NC(=O)c2ccc(SC)c(n2)CCNC(=O)C[C@@H](/C=C/CCSC(C)=O)OC(=O)[C@H](C(C)C)NC1=O [Compound 225]	GI50 [20]: 33 nM
